Measured values taken from the supplement of paper PMC11208160.

assay: recombinant barcode read abundance after kanamycin selection (control-corrected) (log10(CPM+1)); higher = more efficient recombination; sequences stand for … in AGTGCAGAGAAAATCGGCCAGTTTTCTCTGCCTGCAGTCCGCATGCCGT…AGATTTATGCAGCGGACTGCCTTTCTCCCAAAGTGATAAACCGGACAGTATCATGGACCGGTTTTCCCGGTAATCCGTATTTGCAAGGTTGGTTTCACT; site = the 11-nt target
Method in brief: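 A vector carrying a T7-inducible recombinase and the last 73 bp of the bridge RNA received, by Gibson cloning, oligos encoding a promoter, target, barcode and the first 104 bridge RNA bases under J23119. The pooled constructs entered E. coli together with a donor plasmid by electroporation. Selection used chloramphenicol/ampicillin/kanamycin with 0.1 mM IPTG, with chloramphenicol/ampicillin LB agar as the control, each in two replicates. Recombination efficiency is the averaged, control-corrected counts-per-million of barcodes at recombinant junctions, reported as log10(CPM+1).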
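Note: IS621 recombinase and bridge RNA in Escherichia coli cells.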

| Sequence | recombinant barcode read abundance (log10) |
| --- | --- |
| CGTTCTACTTGGGTTCTAACCTGTTGCCT (site CGTTCTACTAG) | 0.00743 |
| GTACCGCCTTGGGTTCTAACCTGTTGCCT (site GTACTGCCTAG) | 0.29 |
| TGTTTAACTTGGGTTCTAACCTGTTGCCT (site TGTTTAACTAG) | 0.0368 |
| GAGCGAGCTTGGGTTCTAACCTGTTGCCG (site GAGCGAGCTCA) | 0.199 |
| GTGTATTCTTGGGTTCTAACCTGTTGCCT (site GTGTATTCTAG) | 1.44 |
| TCGAGTCCTTGGGTTCTAACCTGTTGCGG (site TCGAGTCCTCC) | 1.08 |
| CAAAAGGCTTGGGTTCTAACCTGTTGCAG (site CAAAAGGCTCT) | 1.7 |
| CCTGGGCCTTGGGTTCTAACCTGTTGCTT (site CCTGGACCTAC) | 0.471 |
| GATCGAGCTTGGGTTCTAACCTGTTGCCT (site GATCGCGCTAG) | 0 |
| GGGCAGGCTTGGGTTCTAACCTGTTGCCT (site GGGCAGGCTAG) | 0.969 |
| CGCTGGTCTTGGGTTCTAACCTGTTGCCT (site CGCTTGTCTAG) | 0.111 |
| AGGTTCCCTTGGGTTCTAACCTGTTGCTC (site AGGTTCCCTAA) | 0.243 |
| CGGCGTGCTTGGGTTCTAACCTGTTGCCT (site CTGCGTGCTAG) | 0.161 |
| AGGCGTCCTTGGGTTCTAACCTGTTGCCC (site AGGCGTCCTAG) | 0.417 |
| TAGTACCCTTGGGTTCTAACCTGTTGCAG (site TAGTACCCTTT) | 0.0625 |
| GGGGCATCTTGGGTTCTAACCTGTTGCTT (site GGGGCCTCTAA) | 0.0583 |
| GTGTGTTCTTGGGTTCTAACCTGTTGCCA (site TTGTGTTCTTA) | 0.0943 |
| GTAAGAACTTGGGTTCTAACCTGTTGCTT (site GTAAGCACTAA) | 0.0763 |
| TAGAAGACTTGGGTTCTAACCTGTTGCTT (site TAGAAGACTGA) | 0.0968 |
| TAGTCTCCTTGGGTTCTAACCTGTTGCGT (site TAGTGTCCTAC) | 0.0837 |
| TATGACGCTTGGGTTCTAACCTGTTGCCT (site TACGACGCTAG) | 0.124 |
| GATGAGTCTTGGGTTCTAACCTGTTGCTT (site GATGAGTCTAG) | 1.34 |

| Sequence | recombinant barcode read abundance (log10) |
| --- | --- |
| GGGCACTCTTGGGTTCTAACCTGTTGCCT (site GGGCACTCTAA) | 0.122 |
| TGTCGCTCTTGGGTTCTAACCTGTTGCCT (site TGACGCTCTAG) | 0.0464 |
| GGGGTTCCTTGGGTTCTAACCTGTTGCTT (site GGGGTTCCTAC) | 1.89 |
| CGTTAGACTTGGGTTCTAACCTGTTGCCT (site CGTAAGACTAG) | 0.113 |
| GAAGGCGCTTGGGTTCTAACCTGTTGCCT (site GAAGGCGCTAG) | 1.81 |
| GGCAGTCCTTGGGTTCTAACCTGTTGCTT (site GGCAGTCCTAG) | 0.252 |
| GCGGAGTCTTGGGTTCTAACCTGTTGCGT (site GCGGAGTCTAC) | 1.45 |
| CAGTGGCCTTGGGTTCTAACCTGTTGCCT (site CAGTGGCCTAG) | 0.132 |
| CGCTTGTCTTGGGTTCTAACCTGTTGCTT (site CACTTGACTAA) | 0.0517 |
| CATCAGCCTTGGGTTCTAACCTGTTGCGT (site TATCAGCCTAA) | 0.174 |
| CTCGGATCTTGGGTTCTAACCTGTTGCTT (site CTCGGATCTAA) | 1.38 |
| TCCGAAGCTTGGGTTCTAACCTGTTGCTA (site TCCGAAGCTTA) | 0.29 |
| GAGGTAGCTTGGGTTCTAACCTGTTGCCT (site GATGTATCTAG) | 0.563 |
| ACGCTGGCTTGGGTTCTAACCTGTTGCCT (site ACCCTGGCTAG) | 0.0594 |
| AGGATAGCTTGGGTTCTAACCTGTTGCTG (site AGGATAGCTCA) | 1.45 |
| CTAAGGTCTTGGGTTCTAACCTGTTGCGT (site CTAAGGTCTAG) | 0.209 |
| ACTGGTCCTTGGGTTCTAACCTGTTGCAG (site ACTACTCCTCT) | 0.0961 |
| CCGAGAGCTTGGGTTCTAACCTGTTGCCT (site CGGAGAGCTAG) | 0.0785 |
| CTAGTGACTTGGGTTCTAACCTGTTGCGC (site CTAGTGACTAC) | 0.0258 |
| CACTTATCTTGGGTTCTAACCTGTTGCCT (site CACTTAACTAG) | 0.149 |
| GACGGATCTTGGGTTCTAACCTGTTGCAT (site GACGGATCTAC) | 0.269 |
